{
  "source": "patent US20220195046A1",
  "about": "“METHODS OF TREATING TUMOR” (Bristol-Myers Squibb Company, priority 2019, published 2022)",
  "key": {"[1]": {"test_system": "unresectable stage III or IV melanoma without a BRAF mutation", "assay": "Clinical trial NCT01721772: nivolumab vs dacarbazine in previously untreated melanoma without BRAF mutation", "assay_type": "in vivo, human", "settings": "3-year follow up, previously untreated BRAF wildtype advanced melanoma", "experimental": "The present example reports data collected from two clinical trials: NCT01721772 and NCT01844505. In NCT01721772, 418 subjects with confirmed, unresectable, previously untreated stage III or IV melanoma without a BRAF mutation were randomly assigned in a 1:1 ratio to receive by means of intravenous infusion either 3 mg of nivolumab per kilogram of body weight every 2 weeks, plus a dacarbazine-matched placebo every 3 weeks (n=210, 206 treated), or 1000 mg of dacarbazine per square meter of body-surface area every 3 weeks, plus a nivolumab-matched placebo every 2 weeks (n=208, 205 treated). Randomization was stratified according to tumor PD-L1 status (positive vs. negative or indeterminate) and metastasis stage (M0, M1a, or M1b vs. M1c, defined according to the tumor-node-metastasis system of the American Joint Committee on Cancer and the International Union against Cancer).\nThe primary end point was overall survival. Secondary end points included investigator-assessed progression-free survival, objective response rate, tumor PD-L1 expression, and health related quality of life. Exploratory endpoints included safety, pharmacokinetics, and biomarker analysis."}, "[2]": {"test_system": "unresectable stage III or IV melanoma", "assay": "Clinical trial NCT01844505: nivolumab, nivolumab plus ipilimumab, or ipilimumab in previously untreated melanoma", "assay_type": "in vivo, human", "settings": "4-year follow up, first-line, advanced melanoma", "experimental": "In NCT01844505, 945 previously untreated patients with unresectable stage III or IV melanoma were randomly assigned in a 1:1:1 ratio to receive one of the following regimens: (i) 3 mg of nivolumab per kilogram of body weight every 2 weeks (plus ipilimumab-matched placebo) (n=316, 313 treated); (ii) 1 mg of nivolumab per kilogram every 3 weeks plus 3 mg of ipilimumab per kilogram every 3 weeks for 4 doses, followed by 3 mg of nivolumab per kilogram every 2 weeks for cycle 3 and beyond (n=314, 313 treated); or 3 mg of ipilimumab per kilogram every 3 weeks for 4 doses (plus nivolumab-matched placebo) (n=315, 311 treated) (FIG. 14). Both nivolumab and ipilimumab were administered by means of intravenous infusion.\nRandomization was stratified according to tumor PD-L1 status (positive vs. negative or indeterminate), BRAF mutation status (V600 mutation-positive vs. wild-type), and American Joint Committee on Cancer metastasis stage (M0, M1a, or M1b vs. M1c). Treatment continued until disease progression (as defined by RECIST, version 1.1), development of unacceptable toxic events, or withdrawal of consent.\nProgression-free survival and overall survival were coprimary endpoints. Secondary endpoints included objective response rate, tumor PD-L1 expression, and health related quality of life. Exploratory endpoints included safety, pharmacokinetics, and biomarker analysis."}, "[3]": {"test_system": "PD-L1, PD-1, T-cell markers (CD3, CD4, CD8, FOXP3), macrophage markers (CD68, CD163)", "assay": "IHC biomarker assessment of pretreatment HCC tumor samples vs BOR and overall survival (NCT01658878)", "set-up": "species or system human", "settings": "for Objective response rate, % (95% CI): BOR", "experimental": "Pretreatment tumor samples (fresh or archival) were obtained from patients in the escalation and expansion phases receiving 3 mg/kg nivolumab (saved for IHC) or 0.1-10 mg/kg nivolumab (saved for RNA sequencing).\nSamples were analyzed using (i) IHC to assess PD-L1, PD-1, T-cell markers (CD3, CD4, CD8, FOXP3), and macrophage markers (CD68, CD163); and (ii) RNA sequencing to assess tumor inflammatory signatures. Biomarkers were assessed for their association with clinical outcomes including BOR by blinded independent review committee (per RECIST v1.1) and overall survival. Analyses were performed using the standard Limma and Cox regression framework."}, "[4]": {"test_system": "advanced hepatocellular carcinoma (HCC)", "assay": "Clinical Trial NCT01658878: nivolumab in advanced hepatocellular carcinoma, SOR-naive and SOR-experienced cohorts 1 and 2", "assay_type": "in vivo, human", "experimental": "Cohort 1 comprised 80 SOR-naïve subjects, and Cohort 2 comprised 182 SOR-experienced subjects. Eleven subjects in Cohort 1 and 37 subjects in Cohort 2 were administered 0.1-10 mg/kg nivolumab as part of a dose-escalation analysis. Sixty-nine subject in Cohort 1 and 145 subjects in cohort 2 were administered 3 mg/kg nivolumab as part of a dose-expansion analysis. Following initial treatment, 154 subjects in Cohort 2 (9 subject from the dose-escalation study and 145 subjects from the dose-expansion study) were administered maintenance nivolumab at 3 mg/kg.\nThe primary endpoints of Clinical Trial NCT01658878 were safety and tolerability (dose-escalation) as well as objected response rate (ORR; dose-expansion). Secondary endpoints included ORR (dose-escalation), disease control rate, time to response, duration of response, and overall survival. Exploratory endpoints included biomarker assessments, which are discussed here. […]"}, "[5]": {"settings": "monotherapy, every two weeks; cited from earlier work"}, "[6]": {"settings": "tumor cell PD-L1 <1%, SOR-experienced population n = 137"}, "[7]": {"settings": "tumor cell PD-L1 <1%, overall population (SOR-naïve and SOR-experienced) n = 195"}, "[8]": {"settings": "tumor cell PD-L1 ≥1%, SOR-experienced population n = 137"}, "[9]": {"settings": "tumor cell PD-L1 ≥1%, overall population (SOR-naïve and SOR-experienced) n = 195"}},
  "data": [
    {"compound": "CN(C)/N=N/c1[nH]cnc1C(N)=O", "note": "[dacarbazine]", "values": [
      {"measurement": "ORR, % (95% CI)", "setting": "[1]", "result": 14, "unit": "%"},
      {"measurement": "median OS, months (95% CI)", "setting": "[1]", "result": "11.2 (9.6-13.0) months"},
      {"measurement": "median PFS, months (95% CI)", "setting": "[1]", "result": "2.2 (2.1-2.5) months"}
    ]},
    {"compound": "ipilimumab", "values": [
      {"measurement": "ORRb, % (95% CI)", "setting": "[2]", "result": 19, "unit": "%"},
      {"measurement": "median OS, months (95% CI)", "setting": "[2]", "result": "19.9 (16.9-24.6) months"},
      {"measurement": "median PFS, months (95% CI)", "setting": "[2]", "result": "2.9 (2.8-3.2) months"}
    ]},
    {"compound": "nivolumab", "values": [
      {"measurement": "Complete response, n (%)", "setting": "[3]; [6]", "result": "4 (3.6) n (%)"},
      {"measurement": "Partial response, n (%)", "setting": "[3]; [6]", "result": "10 (9) n (%)"},
      {"measurement": "Progressive disease, n (%)", "setting": "[3]; [6]", "result": "42 (38.1) n (%)"},
      {"measurement": "Stable disease, n (%)", "setting": "[3]; [6]", "result": "49 (44.5) n (%)"},
      {"measurement": "Objective response rate, % (95% CI)", "setting": "[3]; [6]", "result": "12.7 (7.6-20.3) %"},
      {"measurement": "Complete response, n (%)", "setting": "[3]; [7]", "result": "6 (3.7) n (%)"},
      {"measurement": "Partial response, n (%)", "setting": "[3]; [7]", "result": "19 (11.9) n (%)"},
      {"measurement": "Progressive disease, n (%)", "setting": "[3]; [7]", "result": "59 (37.1) n (%)"},
      {"measurement": "Stable disease, n (%)", "setting": "[3]; [7]", "result": "66 (41.5) n (%)"},
      {"measurement": "Objective response rate, % (95% CI)", "setting": "[3]; [7]", "result": "15.7 (10.8-22.2) %"},
      {"measurement": "Complete response, n (%)", "setting": "[3]; [8]", "result": "1 (3.7) n (%)"},
      {"measurement": "Partial response, n (%)", "setting": "[3]; [8]", "result": "6 (22.2) n (%)"},
      {"measurement": "Progressive disease, n (%)", "setting": "[3]; [8]", "result": "10 (37) n (%)"},
      {"measurement": "Stable disease, n (%)", "setting": "[3]; [8]", "result": "8 (29.6) n (%)"},
      {"measurement": "Objective response rate, % (95% CI)", "setting": "[3]; [8]", "result": "25.9 (12.9-44.9) %"},
      {"measurement": "Complete response, n (%)", "setting": "[3]; [9]", "result": "2 (5.5) n (%)"},
      {"measurement": "Partial response, n (%)", "setting": "[3]; [9]", "result": "8 (22.2) n (%)"},
      {"measurement": "Progressive disease, n (%)", "setting": "[3]; [9]", "result": "15 (41.6) n (%)"},
      {"measurement": "Stable disease, n (%)", "setting": "[3]; [9]", "result": "9 (25) n (%)"},
      {"measurement": "Objective response rate, % (95% CI)", "setting": "[3]; [9]", "result": "27.7 (15.7-44.1) %"},
      {"measurement": "ORR", "setting": "[4]", "result": 14.3, "unit": "%"},
      {"measurement": "subjects with duration of response (DOR) of at least 12 months", "setting": "[4]", "result": 50, "unit": "%"},
      {"measurement": "maximum tolerated dose (MTD), not reached at highest dose", "setting": "[5]", "result": "> 10", "unit": "mg/kg"},
      {"measurement": "ORRb, % (95% CI)", "setting": "[2]", "result": 45, "unit": "%"},
      {"measurement": "median OS, months (95% CI)", "setting": "[2]", "result": "36.9 (28.3—NR) months"},
      {"measurement": "median PFS, months (95% CI)", "setting": "[2]", "result": "6.9 (5.1-10.2) months"},
      {"measurement": "ORR, % (95% CI)", "setting": "[1]", "result": 43, "unit": "%"},
      {"measurement": "median OS, months (95% CI)", "setting": "[1]", "result": "37.5 (25.5—NR) months"},
      {"measurement": "median PFS, months (95% CI)", "setting": "[1]", "result": "5.1 (3.5-12.2) months"}
    ]}
  ]
}
